Assay results from the NIST ThermoML archive (doi:10.1016/j.jct.2008.07.013).

Experiments:
[1] = molar heat capacity at constant pressure; settings: 101.33 kPa, Liquid, Small sample (50 mg) DSC
[2] = Liquid, Alternating current cell with electrodes

CCn1cc[n+](C)c1.COCCOCCOS(=O)(=O)[O-] [1-ethyl-3-methylimidazolium 2-(2-methoxyethoxy) ethylsulfate]
Settings	electrical conductivity, [2] [S/m]	molar heat capacity at constant pressure, [1] [J/K/mol]
293.2 K	0.11	–
298.2 K	0.147	–
303.2 K	0.194	526.38
308.2 K	0.244	527.94
313.2 K	0.307	529.49
318.2 K	0.378	531.04
323.2 K	0.459	532.59
328.2 K	0.545	533.83
333.2 K	0.641	535.7
338.2 K	–	537.25
343.2 K	0.859	538.8
348.2 K	–	540.66
353.2 K	1.12	542.21
358.2 K	–	544.08

CCn1cc[n+](C)c1.N#CN=C=[N-] [1-ethyl-3-methylimidazolium dicyanamide]
Settings	electrical conductivity, [2] [S/m]	molar heat capacity at constant pressure, [1] [J/K/mol]
293.2 K	1.89	–
298.2 K	2.2	–
303.2 K	2.55	328.01
308.2 K	2.9	329.96
313.2 K	3.29	332.97
318.2 K	3.68	335.1
323.2 K	4.1	338.64
328.2 K	4.54	340.77
333.2 K	5.02	342.72
338.2 K	–	344.49
343.2 K	5.93	346.44
348.2 K	–	348.92
353.2 K	6.86	351.58
358.2 K	–	354.24
